{
  "source": "patent US20240131198A1",
  "about": "“RATIOMETRIC BIOSENSOR TATTOOS AND USE THEREOF FOR REAL TIME MEASUREMENTS” (priority 2022, published 2024)",
  "key": {"[1]": {"conditions": "50 μM/500 μM of FeSO4:H2O2, 10 μM dye"}, "rat skin": {"tested_on": "rat skin", "test": "Delivery of Cy5-PEG/Cy3-PEG microneedle tattoo to the shaved skin of living rats", "format": "in vivo", "conditions": "MN delivery, fluorescence stereomicroscopy several hours after application"}, "UV-induced dermal ROS": {"tested_on": "UV-induced dermal ROS", "test": "In vivo sensing of UV irradiation-induced ROS in rat skin", "design": "species or system Sprague-Dawley rats", "conditions": "30 minutes after application, t=0 h and t=24 h after irradiation", "excerpt": "Male Sprague-Dawley rats (Charles River, St-Constant, QC) with weight ranging from 300-350 g at delivery were used for this study. Following arrival in the animal facility, all animals were subjected to a general health evaluation. An acclimation period of 5 days was allowed before the beginning of the study. Each animal cage was equipped with a manual water distribution system. A standard certified commercial rodent diet was provided ad libitum. Tap water was provided ad libitum at all times. Rats dorsal skin was shaved and depilated under isoflurane-induced anesthesia using an electric razor and depilating cream (Nair, Church & Dwight) the day before experimentation. Rats were extensively rinsed to prevent burning with residual depilating agent. For irradiation, animals were anesthetized with isoflurane and placed under the UV irradiating lamp (Daavlin 24″ research unit×305/350-6/6) equipped with a UV power meter to manually validate constant dosimetry. Irradiated animal received 700 mJ·cm^2 of UVB. […] Three MN arrays were applied at the same time on different sites of the dorsal skin. MNs were removed, and the application sites were scanned for fluorescence using the portable fluorescence reader. On the first day, sites were read after 0.5, 1, 4, and 6 h. On the second day, new MNs were applied and read immediately or 6 h after application. […]"}, "[2]": {"tested_on": "inflammatory filaggrin-deficient (FLG-) skin model", "test": "H-Cy5-PEG/Cy7.5-PEG microneedle tattoo in human-based atopic skin model", "format": "cell-based", "conditions": "human-based atopic model of skin inflammation, 20 minutes", "experimental": "To provide the proof of concept for our approach and to validate the potential use of a medical tattoo in a biological system, the sensing properties of the generated MNs were tested in human-based inflammatory skin model that closely emulates characteristics of atopic skin in vitro^[76] and has been previously verified for the presence of disease-relevant ROS.^[77] This model has been extensively characterized in previous work showing excellent correlation with atopic skin in vivo.^[76,78,79] The skin model is based on a filaggrin knockdown, as filaggrin mutations are a major pre-disposing factor for AD.^[80] […] Cy7.5 was selected based on its structural similarity to Cy5 and other cyanines, displaying similar physicochemical properties and allowing PEGylation in the same manner as Cy5, as well as its NIR fluorescence (λex=788 nm; λem=808 nm), optimal for visibility in the skin. […]\nThe MNs rapidly dissolved within 2 minutes, after which the backing layer was carefully removed. The fluorescence intensities of the sensor and reference dye in the skin models were determined using an IVIS Lumina II imaging system (Perkin Elmer) at 0, 5, 15 and 20 mins after MN application. […] The fluorescence signal for each model was assessed by selecting a region of interest (ROI) and by the signal-to-noise ratio (Cy5 ROI/Cy7.5 ROI)."}, "[3]": {"test": "Reoxidation of H-Cy5-PEG/Cy7.5-PEG microneedle tattoo in excised porcine skin", "conditions": "H2O2 (100 mM) or Fenton's reagent (40 μM/400 μM), portable fluorescence reader", "experimental": "Microneedle tattoos containing both the sensor and reference dye were delivered ex vivo to excised porcine skin that had been treated with either distilled water (control), or a source of ROS—either H2O2 (100 mM) or Fenton's reagent (40 μM/400 μM).\nExcised porcine skin was obtained and shaved using a manual blade razor to remove any hair. The skin was permeabilized using a 1.0 mm dermaroller (DermaRollerSystem.com, Markham, ON), 200 μL of either distilled H2O, 100 mM H2O2, or Fenton's Reagent (40 μM FeSO4/400 μM H2O2) was added and allowed to soak into the skin for 20 minutes, after which any excess was removed with a paper towel. […] After removal of the MN backing layer, the fluorescence of the application site was measured with the portable fluorescence reader, using both the Cy5 and Cy7.5 filters (Cy5: λex=638 nm, λem=668-702 nm; Cy7.5: λex=782 nm, λem=810-840 nm). For each MN application, 3 measurements were recorded at each wavelength."}},
  "data": [
    {"compound": "CN1/C(=C/C=C/C2=[N+](CCCCCC(=O)O)c3ccccc3C2(C)C)C(C)(C)c2ccccc21", "note": "[Cy3, Cyanine-3]", "values": [
      {"measurement": "signal retained when exposed to ROS", "setting": "[1]", "value": 40, "unit": "%"},
      {"measurement": "diffusion in the skin", "setting": "rat skin", "value": "minimal diffusion"}
    ]},
    {"compound": "CN1/C(=C/C=C/C=C/C2=[N+](CCCCCC(=O)O)c3ccccc3C2(C)C)C(C)(C)c2ccccc21", "note": "[Cy5, Cyanine-5]", "values": [
      {"measurement": "diffusion in the skin", "setting": "rat skin", "value": "minimal diffusion"}
    ]},
    {"compound": "Cyanine-7.5-PEG [Cy7.5-PEG]", "values": [
      {"measurement": "Cy7.5-PEG fluorescence intensity after application in vivo", "setting": "UV-induced dermal ROS", "value": "no significant decrease"},
      {"measurement": "Cy7.5-PEG fluorescence intensity over time", "setting": "[2]", "value": "did not decrease"},
      {"measurement": "fluorescence at Cy7.5-PEG wavelengths in the presence of ROS", "setting": "[3]", "value": "unaffected"}
    ]}
  ]
}
